Experimental data published in US7118692B2, “Substituted thienothiophene monomers and conducting polymers” (priority 2004, dated 2006).

Assays:
[1] = toxicity testing, oral LD50; conditions: in vivo
[2] = toxicity testing, dermal LD50; conditions: in vivo, topical or ocular
[3] = solubility of monomer in solvents; type: physicochemical; conditions: wide variety of solvents
Source text: The tert-butyl substituted thienothiophenes and their conjugated oligomers and polymers show better properties compared to their hydrogen, decyl and phenyl analogs.

Compound | LD50 [1] [mg/kg] | LD50 [2] [mg/kg] | solubility in solvents [3]
CC(C)(C)c1cc2cscc2s1 [2-tert-butyl-thieno[3,4-b]thiophene] | > 500 | > 400 | readily soluble in a wide variety of solvents
c1ccc(-c2cc3cscc3s2)cc1 [2-phenyl-thieno[3,4-b]thiophene] | – | – | only sparingly soluble
c1cc2cscc2s1 [Thieno[3,4-b]thiophene] | 50 | 200 to 400 | –
